Experimental data: PMC6792352, “Limited Chemical Structural Diversity Found to Modulate Thyroid Hormone Receptor in the Tox21 Chemical Library” (Environmental Health Perspectives, 2019)
Where a name gives a salt, the structure may show the parent alone.

Experiment: in vitro
Settings: rat, gh3-tre-luc cells

C=CC(Cl)CCl (stereo not shown) [3,4-Dichloro-1-butene]
CC50 at 24 h (AC50 (uM) modified / 1000, Tox21_110001=Tox21_201361, viability, 1 nM T3 present, 24 h): > 90 µM

O=C(O)c1snc(Cl)c1Cl [3,4-Dichloro-5-isothiazolecarboxylic acid]
CC50 at 24 h (AC50 (uM) modified / 1000): > 90 µM

Nc1ccc(Cl)c(Cl)c1 [3,4-Dichloroaniline]
CC50 at 24 h (AC50 (uM) modified / 1000): > 90 µM

O=Cc1ccc(Cl)c(Cl)c1 [3,4-Dichlorobenzaldehyde]
CC50 at 24 h (AC50 (uM) modified / 1000): > 90 µM

O=C(O)c1ccc(Cl)c(Cl)c1 [3,4-Dichlorobenzoic acid]
CC50 at 24 h (AC50 (uM) modified / 1000): > 90 µM

O=[N+]([O-])c1ccc(Cl)c(Cl)c1 [3,4-Dichloronitrobenzene]
CC50 at 24 h (AC50 (uM) modified / 1000, Tox21_110001=Tox21_201613, viability, 1 nM T3 present, 24 h): > 90 µM

Oc1ccc(Cl)c(Cl)c1 [3,4-Dichlorophenol]
CC50 at 24 h (AC50 (uM) modified / 1000, Tox21_110001=Tox21_200675, viability, 1 nM T3 present, 24 h): > 90 µM

O=C=Nc1ccc(Cl)c(Cl)c1 [3,4-Dichlorophenyl isocyanate]
CC50 at 24 h (AC50 (uM) modified / 1000): > 90 µM

NC(=O)Nc1ccc(Cl)c(Cl)c1 [3,4-Dichlorophenylurea]
CC50 at 24 h (AC50 (uM) modified / 1000): > 90 µM

COC1CCC=CO1 (stereo not shown) [3,4-Dihydro-2-methoxy-2H-pyran]
CC50 at 24 h (AC50 (uM) modified / 1000): > 90 µM

C1=COCCC1 [3,4-Dihydro-2H-pyran]
CC50 at 24 h (AC50 (uM) modified / 1000): > 90 µM

O=C1CCc2ccccc2O1 [3,4-Dihydrocoumarin]
CC50 at 24 h (AC50 (uM) modified / 1000): > 90 µM

O=C(O)c1ccc(O)c(O)c1 [3,4-Dihydroxybenzoic acid]
CC50 at 24 h (AC50 (uM) modified / 1000): > 90 µM

Cc1ccc(N)cc1C [3,4-Dimethylaniline]
CC50 at 24 h (AC50 (uM) modified / 1000): > 90 µM

Cc1ccc(C=O)cc1C [3,4-Dimethylbenzaldehyde]
CC50 at 24 h (AC50 (uM) modified / 1000): > 90 µM

CCC(=O)C(=O)CC [3,4-Hexanedione]
CC50 at 24 h (AC50 (uM) modified / 1000): > 100 µM

N[C@@H](Cc1cc(I)c(Oc2ccc(O)c(I)c2)c(I)c1)C(=O)O [3,5,3ʹ-Triiodothyronine]
CC50 at 24 h (AC50 (uM) modified / 1000): > 70 µM

CC(CCO)CC(C)(C)C (stereo not shown) [3,5,5-Trimethyl-1-hexanol]
CC50 at 24 h (AC50 (uM) modified / 1000): > 90 µM

CC1=CC(O)CC(C)(C)C1 (stereo not shown) [3,5,5-Trimethyl-2-cyclohexen-1-ol]
CC50 at 24 h (AC50 (uM) modified / 1000): > 90 µM

CC(CC=O)CC(C)(C)C (stereo not shown) [3,5,5-Trimethylhexanal]
CC50 at 24 h (AC50 (uM) modified / 1000): > 90 µM

CC(CC(=O)O)CC(C)(C)C (stereo not shown) [3,5,5-Trimethylhexanoic acid]
CC50 at 24 h (AC50 (uM) modified / 1000): > 90 µM

CC(CC(=O)Cl)CC(C)(C)C (stereo not shown) [3,5,5-Trimethylhexanoyl chloride]
CC50 at 24 h (AC50 (uM) modified / 1000): > 90 µM

CC(=O)OCCC(C)CC(C)(C)C (stereo not shown) [3,5,5-Trimethylhexyl acetate]
CC50 at 24 h (AC50 (uM) modified / 1000): > 90 µM

Oc1nc(Cl)c(Cl)cc1Cl [3,5,6-Trichloro-2-pyridinol]
CC50 at 24 h (AC50 (uM) modified / 1000): > 90 µM

Nc1cc(N)cc(C(=O)O)c1 [3,5-Diaminobenzoic acid]
CC50 at 24 h (AC50 (uM) modified / 1000): > 90 µM

O=C(O)c1cc(Br)c(O)c(Br)c1 [3,5-Dibromo-4-hydroxybenzoic acid]
CC50 at 24 h (AC50 (uM) modified / 1000): > 90 µM

Nc1cc(Cl)cc(Cl)c1 [3,5-Dichloroaniline]
CC50 at 24 h (AC50 (uM) modified / 1000): > 90 µM

O=C(O)c1cc(Cl)cc(Cl)c1 [3,5-Dichlorobenzoic acid]
CC50 at 24 h (AC50 (uM) modified / 1000): > 90 µM

O=C(Cl)c1cc(Cl)cc(Cl)c1 [3,5-Dichlorobenzoyl chloride]
CC50 at 24 h (AC50 (uM) modified / 1000): > 90 µM

Oc1cc(Cl)cc(Cl)c1 [3,5-Dichlorophenol]
CC50 at 24 h (AC50 (uM) modified / 1000): > 90 µM

O=C(Nc1ccc(Cl)c(Cl)c1)c1cc(Cl)cc(Cl)c1O [3,5-Dichlorosalicyl-3,4-dichloroanilide]
CC50 at 24 h (AC50 (uM) modified / 1000): 2.97 µM

O=C(O)c1cc(Cl)cc(Cl)c1O [3,5-Dichlorosalicylic acid]
CC50 at 24 h (AC50 (uM) modified / 1000): > 90 µM

CCCC1C(CC)=CC(CC)=CN1c1ccccc1 (stereo not shown) [3,5-Diethyl-1-phenyl-2-propyl-1,2-dihydropyridine]
CC50 at 24 h (AC50 (uM) modified / 1000): > 90 µM

CC1CC(C)C(=O)C1=O (stereo not shown) [3,5-Dimethyl-1,2-cyclopentanedione]
CC50 at 24 h (AC50 (uM) modified / 1000): > 90 µM

C#CC(C)(O)CC(C)C (stereo not shown) [3,5-Dimethyl-1-hexyn-3-ol]
CC50 at 24 h (AC50 (uM) modified / 1000): > 90 µM

Cc1cc(C)cc(N)c1 [3,5-Dimethylaniline]
CC50 at 24 h (AC50 (uM) modified / 1000): > 90 µM

Cc1cc(C)cc(O)c1 [3,5-Dimethylphenol]
CC50 at 24 h (AC50 (uM) modified / 1000): > 90 µM

CCCCOCCOCCOCCOCCO [3,6,9,12-Tetraoxahexadecan-1-ol]
CC50 at 24 h (AC50 (uM) modified / 1000): > 90 µM

C=COCCOCCOCCOC=C [3,6,9,12-Tetraoxatetradeca-1,13-diene]
CC50 at 24 h (AC50 (uM) modified / 1000): > 90 µM

CC1OC(=O)C(C)OC1=O (stereo not shown) [3,6-Dimethyl-2,5-dioxo-1,4-dioxane]
CC50 at 24 h (AC50 (uM) modified / 1000): > 90 µM

COc1ccc(C2NC(=S)N3C(c4ccc(OC)c(OC)c4)NC(=S)N23)cc1OC (stereo not shown) [3,7-Bis(3,4-dimethoxyphenyl)tetrahydro-1H,5H-[1,2,4]triazolo[1,2-a][1,2,4]triazole-1,5-dithione]
CC50 at 24 h (AC50 (uM) modified / 1000): 0.208 µM

CC(C)=CCC/C(C)=C/C=O [3,7-Dimethyl-2,6-octadienal]
CC50 at 24 h (AC50 (uM) modified / 1000): > 90 µM

CCC(C)(O)CCCC(C)C (stereo not shown) [3,7-Dimethyl-3-octanol]
CC50 at 24 h (AC50 (uM) modified / 1000): > 90 µM

CC=C(C)C(=O)OCCC(C)CCC=C(C)C (stereo not shown) [3,7-Dimethyloct-6-en-1-yl 2-methylbut-2-enoate]
CC50 at 24 h (AC50 (uM) modified / 1000): > 90 µM

CC(C)=CCCC(C)CCOC=O (stereo not shown) [3,7-Dimethyloct-6-en-1-yl formate]
CC50 at 24 h (AC50 (uM) modified / 1000): > 90 µM

CCC(C)(O)CCC=C(C)C (stereo not shown) [3,7-Dimethyloct-6-en-3-ol]
CC50 at 24 h (AC50 (uM) modified / 1000): > 90 µM
